For orientation: half-life means the time in which the quantity being followed falls by half.

Each structure is given as a SMILES string.

One data set deals with F11 cells. Put plainly: Cell viability assay in F11 neuronal cells. The note with it: 24 h, 5–60 µM.
Details of data set [1]: method as in PMID 28423567. The note with it: p.o. administration ref 22; cited from earlier work.

Procedure for F11 cells: For the subsequent experiments, DF2726A was used at a final concentration of 1 µM, and oxaliplatin at a final concentration of 20 µM. For comparison, paclitaxel alone or in combination with DF2726A was also used.
F11 hybridoma cells (ECACC 08062601), chosen as a model of DRG neurons[22],[32],[33] were cultivated in DMEM (Euroclone, Milan, Italy) supplemented with 10% FBS (Sigma-Aldrich, St. Louis, MO, USA), 1% penicillin/streptomycin (Euroclone, MI, Italy) and 1% glutamine (Euroclone) at 37 °C, in humidified 95% air with 5% CO2 atmosphere. For all the experiments, cells were used at 18th passage.
Supplementary Fig. 2: Effect of DF2726A, oxaliplatin and paclitaxel treatment on neuronal cell
viability. Cell viability assay of F11 cells after treatment at different concentrations of DF 2726A
(DF; 1-20 µM), oxaliplatin (OXA, 5-60 µM), paclitaxel (PAC, 5-20 nM) and the combination of 20
µM oxaliplatin+DF2726A (Oxa+DF) and paclitaxel+DF2726A (PAC+DF) at 24 h. Data are means

Regarding `O=C1[O][Pt]2([NH][C@@H]3CCCC[C@H]3[NH]2)[O]C1=O` [oxaliplatin, reference compound], in the data set with F11 cells, the Neuronal cell viability result was “ineffective in modulating neuronal cell viability”.
For `CC(C)Cc1ccc([C@@H](C)C(=O)NS(C)(=O)=O)cc1` [reparixin], the half-life in data set [1] is 1.78 h.

(Values after PMC6692352, “DF2726A, a new IL-8 signalling inhibitor, is able to counteract chemotherapy-induced neuropathic pain” (Scientific Reports, 2019).)
